Source: US7932255B2, “2-aminocarbonyl substituted piperazine or diaza-cyclic compounds as apoptosis protein inhibitors (lap) modulators” (Novartis AG, priority 2006, dated 2011)
pIC50: −log10 of the molar value. Read-outs that look alike come from different tables or passages of the source. Where no end group is shown, it is not given here.

What was measured:
GST-BIR3 fusion protein = assay: FMAT Smac peptide / GST-BIR3 competition assay; format: binding; conditions: competing GST-BIR3 off the FMAT beads; read-out: IC50 for non-biotinylated Smac (FMAT)
Description: In order to measure the ability of the inventive compounds to bind the BIR3 peptide binding pocket, a solution phase assay on the FMAT or ELISA technology platform is utilized.
Biotinylated Smac 7-mer peptide (AVPIAQK, lysine ε-amino group is biotinylated) is immobilized on streptavidin coated beads. GST-BIR3 fusion protein is precipitated with FMAT beads and is detected using fluorescent tagged anti-GST antibodies. […] The IC50 for non-biotinylated Smac is 400 nM.

XIAP = target: T1, XIAP (Homo sapiens, UniProt P98170); assay: Disruption of the Smac peptide-(XIAP)BIR3 protein-protein interaction (Tables 2 and 3); format: binding
T1 construct: GST
T1 sequence (P98170 248-358 limits assumed, species assumed): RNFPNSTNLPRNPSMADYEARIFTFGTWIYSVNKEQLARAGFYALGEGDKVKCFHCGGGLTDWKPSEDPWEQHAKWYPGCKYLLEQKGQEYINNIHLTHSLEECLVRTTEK
How it was run: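 Compounds compete with immobilized Smac peptide for the XIAP BIR3 pocket. Percent inhibition at 4 concentrations (usually 3- or 10-fold series from 10 μM); IC50 by logarithmic regression, normalized to an average reference-inhibitor IC50.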

[1] = Series A compounds, Table 2, read-out: XIAP IC50

| Molecule | pIC50 (XIAP; [1]) | also measured |
| --- | --- | --- |
| AVPIAQK [non-biotinylated Smac] |  | pIC50 (GST-BIR3 fusion protein): 6.40 |
| CN[C@@H](C)C(=O)N[C@H](C(=O)N1CCN(C(=O)CCOC)C[C@H]1C(=O)NC1CCCc2ccccc21)C(C)C (stereo partly drawn) [Compound 18, (S)-4-(3-Methoxy-propionyl)-1-[(S)-3-methyl-2-((S)-2-methylamino-propionylamino)-butyryl]-piperazine-2-carboxylic acid (1,2,3,4-tetrahydro-naphthalen-1-yl)-amide] | > 5.00 |  |
| CN[C@@H](C)C(=O)N[C@H](C(=O)N1CCN(C(=O)Oc2ccc(F)cc2)C[C@H]1C(=O)NC1CCCc2ccccc21)C(C)C (stereo partly drawn) [Compound 34, (S)-4-[(S)-3-Methyl-2-((S)-2-methylamino-propionylamino)-butyryl]-3-(1,2,3,4-tetrahydro-naphthalen-1-ylcarbamoyl)-piperazine-1-carboxylic acid 4-fluoro-phenyl ester] |  | pIC50 (XIAP): > 5.00 |

Further lines, with some results ahead:

| pIC50 (XIAP; [1]) | Molecule | also measured |
| --- | --- | --- |
| > 5.00 | CN[C@@H](C)C(=O)N[C@H](C(=O)N1CCN(Cc2ccccc2)C[C@H]1C(=O)NC1CCCc2ccccc21)C(C)C (stereo partly drawn) [Compound 52, (S)-4-Benzyl-1-[(S)-3-methyl-2-((S)-2-methylamino-propionylamino)-butyryl]-piperazine-2-carboxylic acid (1,2,3,4-tetrahydro-naphthalen-1-yl)-amide] |  |
| > 5.00 | CN[C@@H](C)C(=O)N[C@H](C(=O)N1CCN(CC2CC2)C[C@H]1C(=O)NC1CCCc2ccccc21)C(C)C (stereo partly drawn) [Compound 36, (S)-4-Cyclopropylmethyl-1-[(S)-3-methyl-2-((S)-2-methylamino-propionylamino)-butyryl]-piperazine-2-carboxylic acid (1,2,3,4-tetrahydro-naphthalen-1-yl)-amide] |  |
| > 5.00 | CN[C@@H](C)C(=O)N[C@H](C(=O)N1CCN(C(=O)NC(C)C)C[C@H]1C(=O)NC1CCCc2ccccc21)C(C)C (stereo partly drawn) [Compound 48, (S)-4-[(S)-3-Methyl-2-((S)-2-methylamino-propionylamino)-butyryl]-piperazine-1,3-dicarboxylic acid 1-isopropylamide 3-[(1,2,3,4-tetrahydro-naphthalen-1-yl)-amide]] |  |
| > 5.00 | CN[C@@H](C)C(=O)N[C@H](C(=O)N1CCN(Cc2ccccn2)C[C@H]1C(=O)NC1CCCc2ccccc21)C(C)C (stereo partly drawn) [Compound 49, (S)-1-[(S)-3-Methyl-2-((S)-2-methylamino-propionylamino)-butyryl]-4-pyridin-2-ylmethyl-piperazine-2-carboxylic acid (1,2,3,4-tetrahydro-naphthalen-1-yl)-amide] |  |
